The supplement of paper PMC10307832

What was measured:
Test in all cases: relative viability (nuclei count vs DMSO), 5 days (fraction); higher = more cells survive
Tivantinib + OSI-027 = compound: O=C1NC(=O)[C@@H](c2cn3c4c(cccc24)CCC3)[C@@H]1c1c[nH]c2ccccc12 [Tivantinib] + COc1cccc2cc(-c3nc([C@H]4CC[C@H](C(=O)O)CC4)n4ncnc(N)c34)[nH]c12 [OSI-027] (partner 0.5 µM)
Summary of the method: (§1)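 Cells from lung cancer lines were seeded into 1536-well plates and, one day later, dosed by pin tool. Treatments were either a single drug or a fixed dose of an anchor drug with five library-drug doses (not always all listed) in √10 steps. After 5 days, nuclei were stained in a one-step fixation (final 0.05% Triton X-100, 1% formaldehyde, 1 ug/ml Hoechst) and counted on 4× images, and relative viability is the treated-to-vehicle nuclei ratio, as the median of duplicate plates.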

Crenolanib + Olaparib = compound: CC1(COc2ccc3c(c2)ncn3-c2ccc3cccc(N4CCC(N)CC4)c3n2)COC1 [Crenolanib] + O=C(c1cc(Cc2n[nH]c(=O)c3ccccc23)ccc1F)N1CCN(C(=O)C2CC2)CC1 [Olaparib] (partner 8 µM)
Summary of the method: as §1

Tivantinib + Crizotinib = compound: O=C1NC(=O)[C@@H](c2cn3c4c(cccc24)CCC3)[C@@H]1c1c[nH]c2ccccc12 [Tivantinib] + C[C@@H](Oc1cc(-c2cnn(C3CCNCC3)c2)cnc1N)c1c(Cl)ccc(F)c1Cl [Crizotinib] (partner 1 µM)
Summary of the method: as §1

Tivantinib + Trametinib = compound: O=C1NC(=O)[C@@H](c2cn3c4c(cccc24)CCC3)[C@@H]1c1c[nH]c2ccccc12 [Tivantinib] + CC(=O)Nc1cccc(-n2c(=O)n(C3CC3)c(=O)c3c(Nc4ccc(I)cc4F)n(C)c(=O)c(C)c32)c1 [Trametinib] (partner 0.02 µM)
Summary of the method: as §1

| Cell Line | relative viability (Tivantinib + OSI-027; first compound 0.01 µM) | relative viability (Tivantinib + OSI-027; first compound 0.03162 µM) | relative viability (Tivantinib + OSI-027; first compound 0.1 µM) | relative viability (Tivantinib + OSI-027; first compound 0.3162 µM) | relative viability (Crenolanib + Olaparib; first compound 0.01 µM) | relative viability (Crenolanib + Olaparib; first compound 0.03162 µM) | relative viability (Crenolanib + Olaparib; first compound 0.1 µM) | relative viability (Crenolanib + Olaparib; first compound 0.3162 µM) | relative viability (Crenolanib + Olaparib; first compound 1 µM) | relative viability (Tivantinib + Crizotinib; first compound 0.01 µM) | relative viability (Tivantinib + Crizotinib; first compound 0.03162 µM) | relative viability (Tivantinib + Crizotinib; first compound 0.1 µM) | relative viability (Tivantinib + Crizotinib; first compound 0.3162 µM) | relative viability (Tivantinib + Trametinib; first compound 0.01 µM) | relative viability (Tivantinib + Trametinib; first compound 0.03162 µM) | relative viability (Tivantinib + Trametinib; first compound 0.1 µM) | relative viability (Tivantinib + Trametinib; first compound 0.3162 µM) |
| --- | --- | --- | --- | --- | --- | --- | --- | --- | --- | --- | --- | --- | --- | --- | --- | --- | --- |
| NCI-H1355 | 0.434 | 0.348 | 0.401 | 0.356 | 0.812 | 0.817 | 0.739 | 0.784 | 0.651 | 1.15 | 1.1 | 1.01 | 0.806 | 0.476 | 0.412 | 0.469 | 0.367 |
| NCI-H838 | 0.394 | 0.377 | 0.345 | 0.363 | 0.828 | 0.776 | 0.735 | 0.855 | 0.635 | 0.831 | 0.924 | 0.886 | 0.963 | 0.542 | 0.501 | 0.469 | 0.527 |
| NCI-H2126 | 0.639 | 0.63 | 0.658 | 0.549 | 0.928 | 0.91 | 0.893 | 0.994 | 0.952 | 1.02 | 1.01 | 0.983 | 1.03 | 0.522 | 0.549 | 0.573 | 0.545 |
| BEN | 0.323 | 0.269 | 0.278 | 0.339 | 1.15 | 0.96 | 0.966 | 1.01 | 1.05 | 0.897 | 0.72 | 0.672 | 0.681 | 1.13 | 0.94 | 1.01 | 0.769 |
| LCLC-97TM1 | 0.44 | 0.473 | 0.428 | 0.36 | 0.395 | 0.53 | 0.383 | 0.42 | 0.412 | 0.451 | 0.305 | 0.38 | 0.318 | 0.211 | 0.218 | 0.189 | 0.178 |
| EKVX | 0.711 | 0.663 | 0.679 |  | 0.93 | 0.849 | 0.841 | 0.965 | 0.809 | 0.944 | 0.965 | 0.712 | 0.242 | 0.408 | 0.437 | 0.325 | 0.146 |
| NCI-H661 | 0.72 | 0.665 | 0.755 | 0.396 | 0.719 | 0.803 | 0.681 | 0.811 | 0.81 | 0.914 | 1 | 0.962 | 0.736 | 0.602 | 0.561 | 0.536 | 0.355 |
| NCI-H1651 | 0.846 | 0.654 | 0.625 | 0.713 | 0.177 | 0.186 | 0.198 | 0.171 | 0.166 | 0.893 | 0.828 | 0.867 | 0.762 | 0.801 | 0.798 | 0.825 | 0.787 |
| NCI-H2087 | 0.635 | 0.511 | 0.465 | 0.478 | 0.602 | 0.643 | 0.547 | 0.671 | 0.623 | 0.987 | 0.913 | 0.856 | 1.01 | 0.217 | 0.184 | 0.227 | 0.172 |
| LCLC-103H | 0.471 | 0.425 | 0.41 | 0.414 | 0.751 | 0.759 | 0.68 | 0.698 | 0.712 | 0.996 | 1.04 | 1.05 | 0.941 | 0.6 | 0.736 | 0.69 | 0.668 |
| COR-L 105 | 0.838 | 0.378 | 0.581 | 0.363 | 0.729 | 0.641 | 0.643 | 0.751 | 0.584 | 0.725 | 0.769 | 0.787 | 0.435 | 0.425 | 0.412 | 0.455 | 0.356 |
| NCI-H1437 | 0.911 | 0.795 | 0.811 | 0.886 | 0.632 | 0.636 | 0.621 | 0.647 | 0.591 | 0.875 | 1.07 | 0.977 | 0.91 | 0.637 | 0.464 | 0.441 | 0.514 |
| HARA | 0.583 | 0.359 | 0.509 | 0.26 | 0.846 | 0.949 | 0.707 | 0.87 | 0.683 | 1.07 | 1.01 | 1.01 | 0.878 | 0.66 | 0.633 | 0.776 | 0.371 |
| NCI-H2009 | 0.677 | 0.529 | 0.61 | 0.713 | 0.694 | 0.672 | 0.694 | 0.682 | 0.555 | 1.05 | 1.07 | 1.06 | 0.98 | 0.328 | 0.246 | 0.273 | 0.238 |
| NCI-H1755 | 0.775 | 0.662 | 0.69 | 0.791 | 0.919 | 0.801 | 0.845 | 0.898 | 0.848 | 0.892 | 0.878 | 0.793 | 0.92 | 0.78 | 0.748 | 0.666 | 0.771 |
| LU99A | 0.295 | 0.295 | 0.296 | 0.249 | 0.274 | 0.283 | 0.281 | 0.22 | 0.27 | 0.516 | 0.593 | 0.576 | 0.413 | 0.436 | 0.494 | 0.505 | 0.521 |
| ChaGo-K-1 | 0.662 | 0.482 | 0.607 | 0.549 | 0.398 | 0.406 | 0.426 | 0.422 | 0.45 | 1.1 | 1.2 | 1.11 | 0.939 | 0.894 | 0.88 | 0.867 | 0.842 |
| NCI-H23 | 0.651 | 0.366 | 0.515 | 0.518 | 0.311 | 0.278 | 0.282 | 0.347 | 0.341 | 0.511 | 0.615 | 0.512 | 0.416 | 0.509 | 0.352 | 0.37 | 0.347 |
